Measurements taken from patent publication US12247015B2, “3-amino-4H-benzo[e][1,2,4]thiadiazine 1,1-dioxide derivatives as inhibitors of MRGX2” (Solent Therapeutics, LLC, priority 2019, dated 2025).

Tests used:
human MRGX2 receptor = human MRGX2 receptor (Homo sapiens (Human), UniProt Q96LB1); experiment: In vitro radioligand binding assay (Kd); details: membrane from SF9 cells overexpressing human MRGX2; 3H-labeled ligand; pH 7.4, room temperature, 60 minutes
Procedure: In vitro Radioligand Binding Assay (Kd)
Equilibrium dissociation constants, Kd, for many of the compounds described in the Examples section (“test compounds”) are determined in the presence cellular membrane prepared from SF9 cell lines overexpressing the human MRGX2 receptor. The assay is carried out in a 96-well plate (Greiner V-Bottom #651201). […] The assay mixtures, which comprise MRGX2 receptor, radiolabeled ligand and test compound, are incubated at room temperature (˜22° C.) for 60 minutes to reach equilibrium. After incubation, the assay mixtures are collected on a filter mat (Filtermat A, Perkin Elmer) using a cell harvester (Harvester 96, TOMTEC). The filter mat is completely dried. A solid scintillant (Meltilex, Perkin Elmer) is added to each filter membrane and the level of radioactivity (“Signal”) from each well (assay mixture) is recorded using a scintillation counter (Trilux Microbeta, PerkinElmer). Kd is determined by curve-fitting the dose response data ([I], Signal) for each set of samples to the equation,
[formula] where [I] is the concentration of the test compound. The data are reported as pKd

[1] = target: hMRGX2 (CHO-K1 cells overexpressing MRGX2) (Homo sapiens (Human), UniProt Q96LB1); experiment: In vitro inhibition (EC50) of intracellular calcium flux, FLIPR Tetra, substance P stimulation; assay type: cell-based; details: stimulated with MRGX2 ligand substance P, FLIPR Calcium 5, read-out: hMRGX2 Cellular Potency (pEC50) (converted)
Chain of hMRGX2 (CHO-K1 cells overexpressing MRGX2) (Q96LB1 whole entry): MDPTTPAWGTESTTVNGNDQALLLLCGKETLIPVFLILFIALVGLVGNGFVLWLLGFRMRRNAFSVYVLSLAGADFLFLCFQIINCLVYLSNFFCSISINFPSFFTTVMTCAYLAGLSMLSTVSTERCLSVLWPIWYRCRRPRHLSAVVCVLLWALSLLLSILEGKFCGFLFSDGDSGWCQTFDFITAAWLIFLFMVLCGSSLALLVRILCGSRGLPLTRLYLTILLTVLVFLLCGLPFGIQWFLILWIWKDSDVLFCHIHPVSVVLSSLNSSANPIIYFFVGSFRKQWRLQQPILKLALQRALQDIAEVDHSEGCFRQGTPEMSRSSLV
How it was run: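 CHO-K1 cells overexpressing human MRGX2, loaded with Calcium 5 dye for 30 min at 37 °C, then given compound (11-point, top 10 μM).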

Chain of human MRGX2 receptor (Q96LB1 whole entry): as above

Structure (SMILES) | hMRGX2 Binding Affinity (pKd) (human MRGX2 receptor) | EC50 [1] [nM]
O=S1(=O)N=C(NCCF)Nc2c(-c3cccc(F)c3Cl)cccc21 [Example 147, 5-(2-chloro-3-fluorophenyl)-3-((2-fluoroethyl)amino)-4H-benzo[e][1,2,4]thiadiazine 1,1-dioxide] | 6.67 | 51.1
Cc1ccccc1-c1cccc2c1NC(NCc1ccccn1)=NS2(=O)=O [Example 162, 3-((pyridin-2-ylmethyl)amino)-5-(o-tolyl)-4H-benzo[e][1,2,4]thiadiazine 1,1-dioxide] | 6.51 | 100
COCc1cccc2c1NC(Nc1ccc(C(C)C)cc1)=NS2(=O)=O [Example 169, 3-((4-isopropylphenyl)amino)-5-(methoxymethyl)-4H-benzo[e][1,2,4]thiadiazine 1,1-dioxide] | 5.95 | 474
